Source: patent publication US8398759B2, “Environmental friendly anti-microbial adhesion agents for anti-fouling paints and anti-fouling paints containing them” (Biopaint S.R.L., priority 2008, dated 2013)

Assays:
Type in all cases: cell-based
[1] = tested on: mixed populations of biofilmogenic sea bacteria (M1, T1-T5, F1); experiment: Bio-film formation (OD570) in microplates painted with supplemented anti-fouling paints; conditions: 50 g of agent per kg of paint (E50 FIG. 8; V50 FIG. 9); M1, T1 and T5 populations
Description: (§1) The effect of the anti-microbial-adhesion agent of the invention on microbial adhesion and growth has been estimated by using mixed populations of biofilmogenic sea bacteria isolated from the Tyrrhenian Sea (M1), the Adriatic Sea (T1-T5) and an exhausted aquarium filter (F1).
The effectiveness of paints supplemented with the anti-microbial-adhesion agents of the invention in inhibiting the adherent growth of the sea bacteria used in the previous tests was assessed. The formation of a bio-film (OD570) was estimated by the microplate (24 wells) spectrophotometric assay described above. […]
Parallel assays were carried out by using microplates painted with a commercial anti-fouling product (Veneziani Raffaello bianca racing) and non-painted microplates. […]
The paints to be tested were applied only onto the side surface (corresponding to approximately 8.8 cm^2), avoiding to paint the bottom of the wells. […] The plates were inoculated with a cell suspension at an optical density (measured at 600 nm) of 0.5 absorbance units, kept under static incubation, in the dark, for 5 days at 20° C. 5 Days later, the microplates were drained and the growth of the plankton population was determined by a spectrophotometric assessment of the increase in absorbance of the incubation medium. The detection and quantification of a microbial biofilm formation was performed by a spectrophotometric assay. […]

[2] = tested on: mixed populations of biofilmogenic sea bacteria (M1, T1-T5, F1); experiment: Bio-film formation (crystal violet, OD570) in 24-well microplates, compounds in the free form
Description: as §1
The tests with the compounds in the free form were carried out by using: • eugenol in a concentration in the range from 0.5 to 4 g/l, solubilized in an organic solvent (methanol); • vanillin in a concentration in the range from 0.1 to 5 g/l; • benzaldehyde derivatives in a concentration of 2 g/l.
The formation of the bio-film was assessed, in an indirect way, by measuring the amount of crystal violet retained by the cells grown adherently.
The tests were performed in 24-well microplates inoculated with sea bacteria from bio-films of cultures grown under static conditions for 2 weeks. The effect of the compounds was determined by culturing the microorganisms (starting OD600=0.5) in synthetic sea water (Tropic Marin Sea Salt; 33 g/l) supplemented with yeast extract (3 g/l) and fungal peptone (5 g/l). After the inoculation, the plates were incubated at 20° C. for 5 days before assessing the formation of a bio-film (OD570) and the growth of plankton (OD600). The bio-film was estimated after staining with crystal violet.
The inhibition of adhesion experiments were carried out in 24-well microplates by using eugenol concentrations comprised between 0.5 and 4 g/l. The eugenol stock solution was obtained by melting 2 ml of the compound into 3 ml of methanol and 5 ml of a 10 M NaOH solution. The control plates were set up by adding the same volume of hydroalcoholic solution without eugenol. The results shown in FIG. 1 were obtained by using the M1 population. The tests were subsequently repeated with all 7 populations, using an eugenol concentration of 0.5 g/l.

[3] = tested on: plankton growth of sea bacteria populations M1, T1 and T5; experiment: Plankton growth (OD600) in microplates painted with vanillin-supplemented paints; conditions: paints V50, V100, V200; three populations (FIG. 10)
Description: The paints to be tested were applied only onto the side surface (corresponding to approximately 8.8 cm^2), avoiding to paint the bottom of the wells. The plates, after being painted, were maintained for 2 days at 20° C., in a dry and ventilated environment, before being used for the adhesion assay. The plates were inoculated with a cell suspension at an optical density (measured at 600 nm) of 0.5 absorbance units, kept under static incubation, in the dark, for 5 days at 20° C. 5 Days later, the microplates were drained and the growth of the plankton population was determined by a spectrophotometric assessment of the increase in absorbance of the incubation medium. The detection and quantification of a microbial biofilm formation was performed by a spectrophotometric assay. The biocide release rate under static conditions was calculated by measuring, through high performance liquid chromatography (HPLC), the increases in time of the biocide concentration in the liquid medium. […]
In FIG. 10, the increases in absorbance (OD600) are expressed as relative values compared to non-treated samples (not painted).

SMILES | reduced adherent growth of sea bacteria compared to the commercial product [1] | reduction in the bio-film formation ([2]; eugenol 0.5 g/l, free form, 5 days at 20° C., all populations except T3 and F1 (FIG. 2)) | inhibition at 500 µg/mL ([2]; eugenol 0.5 g/l, free form, F1 population (FIG. 2)) [%] | inhibition at 500 µg/mL ([2]; eugenol 0.5 g/l, free form, T3 population (FIG. 2)) [%] | effect of vanillin release on plankton growth (OD600 relative to non-painted samples) [3] | persistence of the inhibition effect on adhesion ([2]; M1 population, 10 days of incubation (FIG. 4)) | concentration at which adhesion of microorganisms to solid surfaces is inhibited ([2]; vanillin tested at 0.1 to 5 g/l, free form, T1, M1, T2, T1-T5, F1 populations (FIG. 3a-5))
C=CCc1ccc(O)c(OC)c1 [eugenol] | 1.2-3.2 fold | about 50% | ~60 | ~15 |  |  | 
COc1cc(C=O)ccc1O [vanillin] | 1.5-15.8 fold |  |  |  | reduced effect on the plankton growth | persists even after 10 days of incubation | above 1 g/l
